One test concerns TTXs sodium channels. In words: TTXs-sodium channel influx assay (membrane potential fluorescence). In kind it is cell-based, rat. The conditions noted are these: ND7/23 cells, veratridine 100 μM. The procedure: ND7/23 rat dorsal root ganglion-derived cell line endogenously expresses a mixed population of TTXs sodium channels (such as Nav1.3, Nav1.2, Nav1.1, Nav1.6). These cells lack of TTXr sodium channels as shown by the absence of their respective transcripts. ND7/23 cells were grown in DMEM supplemented with 10% FBS and 1 mM sodium piruvate.
The cells were seeded at 50,000 cells/well on 96 poly-L-lysine-coated plates and further incubated for 18-24 h before use.
The Membrane Potential Kit Assay (Molecular Devices), based on a negatively charged fluorescent dye able to monitor changes in membrane potential caused by the sodium influx due to the channel opening, was used for the assay.
Cells were incubated with the dye loading for 30 minutes at 25° C. Then, 100 nM of the toxin Anemonia sulcata (used as enhancer of the channel opener response) alone or in the presence of TTX (as reference standard) or test compound were added for further 15 minutes.
The fluorescence (excitation: 530 nm, emission: 565 nm wavelength) was measured before and after (40-45 s) the automated injection of the sodium channel opener veratridine (100 μM) using a Victor plate reader (Perkin Elmer).
The inhibition curves were calculated from 5 concentrations, each in triplicate, and the IC50 determined using a linear regression analysis.

Test [1] has as its system sodium currents of cortical neurons. The test is described as follows: Inhibition of sodium currents in cortical neurons (whole cell patch clamp). In kind it is cell-based. The conditions noted are these: embryonic Wistar rat cortical neurons, preconditioning −50 mV (half maximal steady-state condition); read-out: IC50 (Vhalf). The procedure: Cell Preparation and culturing: cortical neurons were prepared from embryonic Wistar rats (E17-E19). Brains of E17/E19 rats were removed and placed in ice-cold Hank's solution (Hank's solution (Life tech.14170-088)+glucose 30%+Pen-Strep 100× (Life Tech. 15140-122) 100 U-100 μg/ml and Hepes-NaOH 5 mM).
Cortex were isolated, cut in small parts and washed twice with Hank's solution. The solution was removed except 1-2 ml and the tissue was mechanically dissociated. After the mechanical dissociation, 5 ml of complete DMEM (Dulbecco's modified Eagle medium) (Gibco 41966-029)+FBS (Hyclone) 10%+Glutamine (Life Tech. 25030-024) 2 mM+Pen-Strep 100 U-100 μg/ml were added, and cell suspension was centrifuged for 5 min at 1000 rpm. Supernatant was removed and 5 ml of complete Neurobasal medium was added (Neurobasal medium (Life tech. 21103-049)+B27 (Life tech. 17504-044) 2%+Glutamine 2 mM+Pen-Strep 100 U-100 μg/ml)
Cells were counted and diluted in Neurobasal medium to a concentration of 400000 cells per poly-D-lysine 5 μg/ml treated Petri dish. […]
Whole Cell Patch Clamp Recordings: Experiments on cortical neurons were carried out using standard whole cell patch clamp methods (Hamill et al., 1981). Membrane currents were recorded and filtered at 5 kHz with an Axon Axopatch 200B amplifier and data digitized with an Axon Digidata 1322A (Axon Instruments, CA, USA). […]
On the technique in general: Patch clamp records ionic current or voltage across a cell membrane.

In test [2] the test system is chronic constriction injury model in the rat. In words: Bennett model of neuropathic pain in rats (cold allodynia). The conditions noted are these: AUD of cold allodynia as percent inhibition of vehicle control. It is filed as in vivo. How it is done: Effects on neuropathic pain are tested in the chronic constriction injury model in the rat (Bennett, G. J. and Xie, Y. K., A peripheral mononeuropathy in rat that produces disorders of pain sensation like those seen in man, Pain, 33 (1988) 87-107). Under pentobarbital anesthesia (Nembutal, 50 mg/kg, i.p.), unilateral multiple ligations are performed on male Sprague-Dawley rats (140-160 g) at the right common sciatic nerve. The sciatic nerve is exposed by blunt dissection at the level of mid-thigh and four loose ligatures (5-0 chromic catgut) are placed around the nerve taking care not to interrupt the epineural circulation. After operation, animals are allowed to recover for one week. Animals develop a cold allodynia which is stable for at least five weeks. […] The animals, randomly assigned to groups of 10 for each test dose and vehicle, are observed for periods of 2 minutes before and after application of test compound and the number of brisk withdrawal reactions is counted. […] Percent maximal possible effect (% MPE) and standard error of the mean (SEM) of each time point is determined with the pre-test value used as […]. The area under the data (AUD) is calculated for the observation period and expressed as percent inhibition of vehicle control as shown in Table 8. Significance is calculated by paired t-test on the percent AUD values.

In general, IC50 refers to the concentration at which inhibition is half-maximal.

With `CCCCOc1cccc(CCN(CC(=O)N(C)C)CC2CCOC2)c1.Cl` (racemic) [Example 96, 2-[[2-(3-Butoxy-phenyl)-ethyl]-(tetrahydrofuran-3-ylmethyl)amino]-N,N-dimethyl-acetamide hydrochloride], the IC50 in the test with TTXs sodium channels is 2 µM; in test [1], 0.5 µM. Moreover, the “Change vs. Control” value in test [2] (0.1 mg/kg p.o.) is 35.7%.

As to `C[C@H](NCc1ccc(OCc2ccccc2F)cc1)C(N)=O` [ralfinamide, (S)-(+)-2-[4-(2-fluoro-benzyloxy)-benzylamino]-propanamide, reference compound], the results for the half-inhibitory concentration (IC50) (in the test on TTXs sodium channels; in test [1]) were 9.5 µM and 9 µM, respectively. In test [2] (1.0 mg/kg p.o.), the “Change vs. Control” value is 23.7%.

The values above are taken from patent US8129427B2, “2-phenylethylamino derivatives as calcium and/or sodium channel modulators” (Newron Pharmaceuticals S.p.A., priority 2005, dated 2012).
